These are literature values, as cited in patent US20230049319A1, “CANNABINOID-COMPRISING COSMETIC COMPOSITIONS” (THIS WORKS PRODUCTS LIMITED, priority 2020, published 2023).

Data set [1] relates to chronic inflammation and pain. As to conditions: mice and rats.
For data set [2] the following is noted: in vivo.
In data set [3] the test system is anxiety. As to conditions: in vivo.

With `C=C(C)[C@@H]1CCC(C)=C[C@H]1c1c(O)cc(CCCCC)cc1O` [CBD, cannabidiol], in data set [1], the “chronic inflammation and pain” value is listed as “substantially reduce”.

As for `C=CC(C)(O)CCC=C(C)C` (stereo not shown) [Linalool], the “dose shown to be safe” value in data set [2] is recorded as no more than 120 mg.

With `C=C[C@](C)(O)CCC=C(C)C` [R-(−)-linalool], in data set [3], the “reducing anxiety, compared with trazodone hydrochloride” value is listed as “as effective as the trazodone hydrochloride”.

Regarding `C=C[C@@](C)(O)CCC=C(C)C` [S-(+)-linalool], the “reducing anxiety, compared with trazodone hydrochloride” value in data set [3] is reported as “as effective as the trazodone hydrochloride”.
